{"source": "patent US8680052B1", "about": "“Methods of treating, reducing the incidence of, and/or preventing ischemic events” (The Medicines Company, priority 2013, dated 2014)", "tested_on": "patients undergoing percutaneous coronary intervention (PCI)", "details": "for Mortality/Q-wave MI/IDR / Mortality/Q-wave MI/Stent thrombosis: exploratory; for Angiographic complications (site reported): Abrupt vessel closure / Angiographic complications (site reported): Acute stent thrombosis / Angiographic complications (site reported): Need for urgent CABG / Angiographic complications (site reported): New thrombus or suspected thrombus / Angiographic complications (site reported): Threatened abrupt closure / Angiographic complications (site reported): Unsuccessful procedure: index PCI", "note": "Where two headings read alike, the source gives them in different places.", "protocol": "The diagnosis of non-ST-segment elevation myocardial infarction required troponin I or T greater than the upper limit of normal within 24 hours of randomization (or if troponin results were unavailable at that time, creatine kinase-myocardial band isoenzyme [CK-MB] greater than the upper limit of normal). The diagnosis of unstable angina required ischemic chest discomfort occurring at rest and lasting ≧10 minutes within the 24 hours prior to randomization and dynamic electrocardiographic changes; age ≧65 years and/or diabetes mellitus were also required.\nThe primary efficacy endpoint was the composite of mortality, myocardial infarction, or ischemia-driven revascularization at 48 hours. The primary analysis was performed on a modified intent-to-treat population. Confirmatory analyses were performed on an intent-to-treat population. Secondary endpoints included the individual rates of mortality, myocardial infarction, new Q-wave myocardial infarction, ischemia-driven revascularization, abrupt vessel closure, or stroke at 48 hours. Mortality at 30 days and 1 year was also recorded. The clinical events committee adjudicated myocardial infarction, Q-wave myocardial infarction, ischemia-driven revascularization, stent thromboses, and stroke (ischemic or hemorrhagic). The definition of stent thrombosis was similar to the Academic Research Consortium definition of definite stent thrombosis. After review of the prespecified analyses, two exploratory endpoints less reliant on periprocedural biomarker ascertainment were examined. The exploratory endpoints, which were composed of prespecified and adjudicated endpoints, were the composite of mortality, Q-wave myocardial infarction, or ischemia-driven revascularization and the composite of mortality, Q-wave myocardial infarction, or stent thrombosis. Bleeding and adverse events through 48 hours were compared.\nAll efficacy analyses were performed on the modified intent-to-treat population, defined as all randomized patients who received at least one dose of study drug and underwent the index PCI. All safety-related analyses were performed on the safety population, which included all patients who received at least one dose of assigned study drug. Patients in the safety analyses were assigned to a treatment arm based on treatment actually received, not as randomized. Intent-to-treat analyses are also presented for full disclosure of results. All statistical tests were two-tailed using a level of significance of 0.05. […] Logistic regression was also used to analyze the majority of the remaining secondary endpoints."}
{"smiles": "COC(=O)[C@H](c1ccccc1Cl)N1CCc2sccc2C1", "note": "[Clopidogrel, clopidogrel, reference compound]", "values": [{"measurement": "All-cause mortality", "setting": "30-day, ITT", "result": "47 (1.8) no. (%)"}, {"measurement": "IDR", "setting": "30-day, ITT", "result": "49 (1.8) no. (%)"}, {"measurement": "MI", "setting": "30-day, ITT", "result": "202 (7.6) no. (%)"}, {"measurement": "Mortality/MI/IDR", "setting": "30-day, ITT", "result": "254 (9.6) no. (%)"}, {"measurement": "Q-wave MI", "setting": "30-day, ITT", "result": "15 (0.6) no. (%)"}, {"measurement": "Stent thrombosis", "setting": "30-day, ITT", "result": "29 (1.1) no. (%)"}, {"measurement": "Mortality/Q-wave MI/IDR", "setting": "30-day, ITT", "result": "94 (3.5) no. (%)"}, {"measurement": "Mortality/Q-wave MI/Stent thrombosis", "setting": "30-day, ITT", "result": "77 (2.9) no. (%)"}, {"measurement": "All-cause mortality", "setting": "30-day, MITT", "result": "45 (1.7) no. (%)"}, {"measurement": "IDR", "setting": "30-day, MITT", "result": "46 (1.7) no. (%)"}, {"measurement": "MI", "setting": "30-day, MITT", "result": "201 (7.6) no. (%)"}, {"measurement": "Mortality/MI/IDR", "setting": "30-day, MITT", "result": "249 (9.5) no. (%)"}, {"measurement": "Q-wave MI", "setting": "30-day, MITT", "result": "14 (0.5) no. (%)"}, {"measurement": "Stent thrombosis", "setting": "30-day, MITT", "result": "28 (1.1) no. (%)"}, {"measurement": "Mortality/Q-wave MI/IDR", "setting": "30-day, MITT", "result": "89 (3.4) no. (%)"}, {"measurement": "Mortality/Q-wave MI/Stent thrombosis", "setting": "30-day, MITT", "result": "73 (2.8) no. (%)"}, {"measurement": "All-cause mortality", "setting": "30-day, Safety population", "result": "45 (1.7) no. (%)"}, {"measurement": "IDR", "setting": "30-day, Safety population", "result": "47 (1.8) no. (%)"}, {"measurement": "MI", "setting": "30-day, Safety population", "result": "203 (7.7) no. (%)"}, {"measurement": "Mortality/MI/IDR", "setting": "30-day, Safety population", "result": "251 (9.5) no. (%)"}, {"measurement": "Q-wave MI", "setting": "30-day, Safety population", "result": "15 (0.6) no. (%)"}, {"measurement": "Stent thrombosis", "setting": "30-day, Safety population", "result": "28 (1.1) no. (%)"}, {"measurement": "Mortality/Q-wave MI/IDR", "setting": "30-day, Safety population", "result": "90 (3.4) no. (%)"}, {"measurement": "Mortality/Q-wave MI/Stent thrombosis", "setting": "30-day, Safety population", "result": "74 (2.8) no. (%)"}, {"measurement": "All-cause mortality", "setting": "48-hour, ITT", "result": "19 (0.7) no. (%)"}, {"measurement": "IDR", "setting": "48-hour, ITT", "result": "26 (1.0) no. (%)"}, {"measurement": "MI", "setting": "48-hour, ITT", "result": "192 (7.2) no. (%)"}, {"measurement": "Mortality/MI/IDR", "setting": "48-hour, ITT", "result": "213 (8.0) no. (%)"}, {"measurement": "Q-wave MI", "setting": "48-hour, ITT", "result": "9 (0.3) no. (%)"}, {"measurement": "Stent thrombosis", "setting": "48-hour, ITT", "result": "16 (0.6) no. (%)"}, {"measurement": "Stroke", "setting": "48-hour, ITT", "result": "6 (0.2) no. (%)"}, {"measurement": "Mortality/Q-wave MI/IDR", "setting": "48-hour, ITT", "result": "44 (1.7) no. (%)"}, {"measurement": "Mortality/Q-wave MI/Stent thrombosis", "setting": "48-hour, ITT", "result": "36 (1.4) no. (%)"}, {"measurement": "All-cause mortality", "setting": "48-hour, MITT", "result": "18 (0.7) no. (%)"}, {"measurement": "IDR", "setting": "48-hour, MITT", "result": "24 (0.9) no. (%)"}, {"measurement": "MI", "setting": "48-hour, MITT", "result": "191 (7.2) no. (%)"}, {"measurement": "Mortality/MI/IDR (primary endpoint)", "setting": "48-hour, MITT", "result": "210 (8.0) no. (%)"}, {"measurement": "Q-wave MI", "setting": "48-hour, MITT", "result": "8 (0.3) no. (%)"}, {"measurement": "Stent thrombosis", "setting": "48-hour, MITT", "result": "16 (0.6) no. (%)"}, {"measurement": "Stroke", "setting": "48-hour, MITT", "result": "5 (0.2) no. (%)"}, {"measurement": "Mortality/Q-wave MI/IDR", "setting": "48-hour, MITT", "result": "41 (1.6) no. (%)"}, {"measurement": "Mortality/Q-wave MI/Stent thrombosis", "setting": "48-hour, MITT", "result": "34 (1.3) no. (%)"}, {"measurement": "Mortality/Q-wave MI/IDR", "setting": "48-hour, Safety population", "result": "42 (1.6) no. (%)"}, {"measurement": "Mortality/Q-wave MI/Stent thrombosis", "setting": "48-hour, Safety population", "result": "35 (1.3) no. (%)"}, {"measurement": "All-cause mortality", "setting": "48-hour, safety population", "result": "18 (0.7) no. (%)"}, {"measurement": "IDR", "setting": "48-hour, safety population", "result": "25 (0.9) no. (%)"}, {"measurement": "MI", "setting": "48-hour, safety population", "result": "193 (7.3) no. (%)"}, {"measurement": "Mortality/MI/IDR", "setting": "48-hour, safety population", "result": "212 (8.0) no. (%)"}, {"measurement": "Q-wave MI", "setting": "48-hour, safety population", "result": "9 (0.3) no. (%)"}, {"measurement": "Stent thrombosis", "setting": "48-hour, safety population", "result": "16 (0.6) no. (%)"}, {"measurement": "Stroke", "setting": "48-hour, safety population", "result": "5 (0.2) no. (%)"}, {"measurement": "Angiographic complications (site reported): Abrupt vessel closure", "setting": "ITT", "result": "16 (0.6)"}, {"measurement": "Angiographic complications (site reported): Acute stent thrombosis", "setting": "ITT", "result": "5 (0.2)"}, {"measurement": "Angiographic complications (site reported): Need for urgent CABG", "setting": "ITT", "result": "4 (0.2)"}, {"measurement": "Angiographic complications (site reported): New thrombus or suspected thrombus", "setting": "ITT", "result": "15 (0.6)"}, {"measurement": "Angiographic complications (site reported): Threatened abrupt closure", "setting": "ITT", "result": "9 (0.3)"}, {"measurement": "Angiographic complications (site reported): Unsuccessful procedure", "setting": "ITT", "result": "97 (3.7)"}, {"measurement": "Angiographic complications (site reported): Abrupt vessel closure", "setting": "MITT", "result": "16 (0.6)"}, {"measurement": "Angiographic complications (site reported): Acute stent thrombosis", "setting": "MITT", "result": "5 (0.2)"}, {"measurement": "Angiographic complications (site reported): Need for urgent CABG", "setting": "MITT", "result": "3 (0.1)"}, {"measurement": "Angiographic complications (site reported): New thrombus or suspected thrombus", "setting": "MITT", "result": "15 (0.6)"}, {"measurement": "Angiographic complications (site reported): Threatened abrupt closure", "setting": "MITT", "result": "9 (0.3)"}, {"measurement": "Angiographic complications (site reported): Unsuccessful procedure", "setting": "MITT", "result": "95 (3.6)"}, {"measurement": "Angiographic complications (site reported): Abrupt vessel closure", "setting": "Safety population", "result": "16 (0.6)"}, {"measurement": "Angiographic complications (site reported): Acute stent thrombosis", "setting": "Safety population", "result": "5 (0.2)"}, {"measurement": "Angiographic complications (site reported): Need for urgent CABG", "setting": "Safety population", "result": "3 (0.1)"}, {"measurement": "Angiographic complications (site reported): New thrombus or suspected thrombus", "setting": "Safety population", "result": "15 (0.6)"}, {"measurement": "Angiographic complications (site reported): Threatened abrupt closure", "setting": "Safety population", "result": "9 (0.3)"}, {"measurement": "Angiographic complications (site reported): Unsuccessful procedure", "setting": "Safety population", "result": "95 (3.6)"}]}
